Source: the supplement of paper PMC4862054

Key:
Experiment in all cases: normalised response (% of control), CellTox Green; higher = less cell death (100 = DMSO, 0 = benzethonium chloride kill control)
Conditions in all cases: incubation time: 72 h
[1] = test system: BT-474
Method in brief: (§1)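 Each entry is the normalised signal at a single concentration within a series. The series comprised 5 concentrations in 10-fold steps over a compound-specific 10,000-fold range, placed in 384-well plates into which breast cancer cell lines were seeded as 20 µl suspension and incubated 72 h. CellTox Green (485/520 nm) fluorescence and then CellTiter-Glo luminescence were read, with signals normalised per plate to 0.1 % DMSO (100) and a positive kill control (0).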

[2] = test system: BT-549
Method in brief: as §1

[3] = test system: CAL-120
Method in brief: as §1

[4] = test system: CAL-148
Method in brief: as §1

[5] = test system: CAL-85-1
Method in brief: as §1

[6] = test system: DU-4475
Method in brief: as §1

[7] = test system: HCC1143
Method in brief: as §1

[8] = test system: HCC1599
Method in brief: as §1

[9] = test system: HCC1937
Method in brief: as §1

[10] = test system: HDQ-P1
Method in brief: as §1

[11] = test system: Hs578T
Method in brief: as §1

[12] = test system: MCF-10A
Method in brief: as §1

[13] = test system: MDA-MB-231
Method in brief: as §1

[14] = test system: MDA-MB-436
Method in brief: as §1

[15] = test system: MDA-MB-453
Method in brief: as §1

[16] = test system: MFM-223
Method in brief: as §1

[17] = test system: MDA-MB-468
Method in brief: as §1

| Structure (SMILES) | normalised response [1] [%] | normalised response [2] [%] | normalised response [3] [%] | normalised response [4] [%] | normalised response [5] [%] | normalised response [6] [%] | normalised response [7] [%] | normalised response [8] [%] | normalised response [9] [%] | normalised response [10] [%] | normalised response [11] [%] | normalised response [12] [%] | normalised response [13] [%] | normalised response [14] [%] | normalised response [15] [%] | normalised response [16] [%] | normalised response [17] [%] |
| --- | --- | --- | --- | --- | --- | --- | --- | --- | --- | --- | --- | --- | --- | --- | --- | --- | --- |
| N.N.[Cl][Pt][Cl] [Cisplatin] (1000 nM) | 103 | 89.3 | 106 | 109 | 97.9 | 97.5 | 108 | 92 | 92.5 | 109 | 144 | 123 | 94.5 | 98.4 | 95.4 | 93.2 | – |
| CN(C)/N=N/c1[nH]cnc1C(N)=O [Dacarbazine] (1000 nM) | 102 | 114 | 100 | 101 | 103 | 101 | 86.7 | 101 | 116 | 88.7 | – | 111 | 116 | 77 | 103 | – | – |
| CN(C)/N=N/c1[nH]cnc1C(N)=O [Dacarbazine] (10000 nM) | 95 | 94.1 | 105 | – | 81.7 | 98.9 | 116 | 104 | – | 111 | 126 | 103 | 101 | 91.3 | 101 | 96.7 | 104 |
| Cc1ccc(-n2nc(C(C)(C)C)cc2NC(=O)Nc2ccc(OCCN3CCOCC3)c3ccccc23)cc1 [Doramapimod] (10000 nM) | 97.5 | 110 | 93.6 | 98.2 | 126 | 100 | 75.8 | 99 | 79.6 | 96.2 | 71.6 | 101 | – | 55.2 | 104 | 96.5 | 132 |
| C#Cc1cccc(Nc2ncnc3cc(OCCOC)c(OCCOC)cc23)c1 [Erlotinib] (1000 nM) | 98.3 | 96.5 | 103 | 69.6 | 70.4 | 103 | 112 | 103 | 121 | 100 | 99.5 | 69.5 | 101 | 101 | 108 | 86.7 | – |
| C#Cc1cccc(Nc2ncnc3cc(OCCOC)c(OCCOC)cc23)c1 [Erlotinib] (10000 nM) | 83.9 | 95.8 | 100 | 85.1 | 46 | 101 | 16.9 | 104 | 81.4 | 79.7 | 64.7 | 104 | – | 102 | 95.1 | 69.3 | 97.7 |
